{
  "source": "patent US20080069857A1",
  "about": "“Compositions And Methods For Inhibiting Adhesions” (priority 2006, published 2008)",
  "key": {"[1]": {"assay": "Budesonide solubility in saline", "type": "physicochemical", "conditions": "saline or isotonic, thermodynamic from solid, 37° C., read-out: saturation solubility in saline", "description": "The maximum solubility of budesonide in saline was determined as described (Gennaro A R, editor. Remington: The Science and Practice of Pharmacy. 20th ed. Philadelphia, Pa.: Lippincott Williams & Wilkins, 2000, which is incorporated herein by reference). First, increasing amounts of budesonide were mixed with saline to provide budesonide concentration in the system from 25 mg/ml to 0.002 mg/ml. The mixtures were constantly stirred at 37° C. for 24 hours, and then centrifuged at 12,000 rpm for 5 minutes to separate the solution phase from the solid phase. The budesonide concentrations in the solution phase were measured by High Performance Liquid Chromatography (HPLC). The saturation solubility of budesonide in saline was determined by extrapolating the line segment, of which slope was 0, to y-axis.\nIn a separate experiment, budesonide-saline 0.13 mg/ml was prepared as described above, divided into 1 ml aliquots, and incubated at 37° C. with constant stirring. At timed intervals, an aliquot of budesonide-saline was taken and centrifuged at 12,000 rpm for 5 minutes to separate 0.8 ml of supernatant for HPLC analysis. The remaining 0.2 ml, potentially containing precipitated budesonide, was dissolved in 0.8 ml acetonitrile and analyzed with HPLC. […]"}, "[2]": {"conditions": "United States Pharmacopoeia classification \"practically insoluble\"; cited from earlier work"}, "[3]": {"system": "TNF-α production by primary mouse macrophages", "assay": "TNF-α production by LPS-challenged macrophages", "type": "cell-based, mouse (C57/B16)", "conditions": "macrophages stimulated with LPS", "description": "(§1) C57/B16 mice were purchased from Taconic (Hudson, N.Y.). 2 ml of 3% (w/v) sterile thioglycollate solution (DIFCO Laboratories, Detroit, Mich.) was injected into the peritoneal cavity. Four days after injection, the mice were euthanized by CO2, and 6 ml of ice-cold PBS buffer containing 5 mM EDTA was injected. After agitating the peritoneum with forceps, a macrophage-containing solution was aspirated. The cells were placed immediately into iced DMEM on ice prior to washing, counting and plating. Approximately 10^7 cells per mouse were obtained.\n(§2) Non-adherent cells were removed by washing with 200 μl/well PBS buffer. Then 100 μl of DMEM with 10% FBS and 100 μl of medium pre-incunated with hydrogels (Sec. 2.2.9), or known concentrations of dexamethasone, were added to the adherent macrophages in each well. After incubation for 24 h at 37° C. in 5% CO2, 25 μl of 900 ng/ml of LPS (Sigma, St. Louis, Mo.; Catalog #L-4391) was added to each well to a final concentration of 100 ng/ml. After incubation for a further 16 h, the media were collected and stored at −80° C. until analyzed. The concentration of TNF-α, IL-6, and dexamethasone in those media were measured by ELISA (enzyme-linked immunosorbent assay). The ELISA kits for TNF-α, IL-6, and dexamethasone were purchased from R&D Systems (DuoSet, Cat DY406), BioLegend (Mouse IL-6 ELISA MAX™ Set (Deluxe)), and Neogen Corporation, respectively."}, "[4]": {"system": "IL-6 production by primary mouse macrophages", "assay": "IL-6 production by LPS-challenged macrophages", "type": "cell-based, mouse (C57/B16)", "conditions": "macrophages stimulated with LPS", "description": "as §1, §2"}, "[5]": {"system": "Human mesothelial cells (ATCC, CRL-9444)", "experimental": "In vitro cell viability assay: Human mesothelial cells (ATCC, CRL-9444) were cultured in Medium 199, containing Earle's salts, L-glutamine, and 2.2 g/L sodium bicarbonate and supplemented with 3.3 nM epidermal growth factor, 400 nM hydrocortisone, 870 nM insulin, 20 mM HEPES, and 10% fetal bovine serum. Cells from passage 5 through 25 were used for the following studies. Mesothelial cells were seeded into 24-well plates at a density of 50,000 cells per well in 1 ml of culture medium. […] After varying periods of incubation in the presence of the hydrogels, cell viability was assessed with an MTT assay kit (Promega CellTiter 96 Non-Radioactive Cell Proliferation Assay).\nCell proliferation assay. […] After varying periods of incubation in the presence of the hydrogels, cell viability was assessed with an MTT assay kit (Promega CellTiter 96 Non-Radioactive Cell Proliferation Assay).\nMesothelial cells were grown and maintained in a complete growth medium (GIBCO: Medium199 with Earle's BSS, 0.75 mM L-glutamine and 1.25 g/L sodium bicarbonate supplemented with 3.3 nM epidermal growth factor, 400 nM hydrocortisone, 870 nM insulin, 20 mM HEPES and 10% fetal bovine serum) at 37° C. in 5% CO2. […] The purple formazan produced by active mitochondria was solubilized using 1 ml detergent solution and then read at 570 nm by plate reader (Molecular Devices: SpectraMax 384, Union City, Calif.). […]"}, "peritoneal adhesions": {"system": "peritoneal adhesions", "conditions": "1 week after second laparotomy", "description": "Repeated laparotomy model. Female albino rabbits (Oryctolagus cuniculus; New Zealand White) (3±0.5 kg) were used. The first laparotomy and post-operation care were performed as described above. A 2nd laparotomy was performed after 1 week. On examination prior to the 2nd laparotomy, animals were excluded from the 2nd laparotomy for the following: (i) loss of more than 15% of body weight since the 1st laparotomy; (ii) poor feeding. On laparotomy, adhesions were scored as previously then lysed (cut). The previously excised abdominal wall was re-abraded 50 times unidirectionally, and the cecum surface between 6-12th haustra was re-abraded 150-200 times bidirectionally using a sterile brush until a bleeding bed was obtained.\nThirty animals were assigned randomly to experimental groups and test materials were applied on the injured areas. The operator was blinded as to the nature of the materials. HA-ADH and HA-CHO were sterilized by germicidal UV illumination for 2 hours and dissolved in 5 ml sterile saline, respectively. Ten ml of gel were applied on the injured sites with a dual valve applicator as previously. As controls, a group of animals received no treatment, and another group received 10 ml saline.\nAfter treatment of the injured areas, the peritoneum and abdominal wall were closed with 2-0 Ethilon and 3-0 Dexon, respectively. The skin was closed with 2-0 Ethilon. Animals were allowed to awaken and had food and water ad libitum. Buprenorphine 0.02-0.03 mg/kg was administered sc 8-12 hours interval until 48 hours post-surgery. The animals were sacrificed 1 week after the second laparotomy by intravenous injection of sodium pentobarbital. Adhesions were scored in two ways. (i) Quality of adhesions was scored as follows: Adhesions were scored using a modification of a reported method (Burns J W, Skinner K, Colt J, Sheidlin A, Bronson R, Yaacobi Y, et al. Prevention of tissue injury and postsurgical adhesions by precoating tissues with hyaluronic acid solutions. Journal of Surgical Research 1995;59:644-652, which is incorporated herein by reference). Score 0=no adhesion, score 1=tissue adherence that would separate with gravity, score 2=tissue adherence separable by blunt dissection, score 3=adhesion requiring sharp dissection. If there were multiple adhesions of different scores, we chose the higher one as a representative score. (ii) Area of score 2 or 3 adhesions was measured for quantitative evaluation of the adhesions. The location of adhesions (whether they include suture sites or not; location and number of cecal haustra involved in the adhesion) and weight changes were recorded. Tissues recovered from the necropsy were fixed in 10% formalin, embedded in paraffin, sectioned, and stained with hematoxylin and eosin for histological examination.\nPeritoneal adhesions were induced in female albino rabbits (Oryctolagus cuniculus; New Zealand White) (3±0.5 kg) through repeated laparotomies as described in our previous study [tPA]. Briefly, cecum abrasion and excision of abdominal wall were performed to induce de novo adhesions (Yeo et al. In situ cross-linkable hyaluronic acid hydrogels prevent post-operative abdominal adhesions in a rabbit model. Biomaterials 2006;27:4698-4705, which is incorporated herein by reference). A second laparotomy was performed after 1 week to cut the adhesions and introduce additional injuries to the same locations as those injured in the first laparotomy. […]"}},
  "data": [
    {"compound": "CCCC1O[C@@H]2C[C@H]3[C@@H]4CCC5=CC(=O)C=C[C@]5(C)[C@H]4[C@@H](O)C[C@]3(C)[C@]2(C(=O)CO)O1", "note": "(some centres unmarked) [Budesonide]", "values": [
      {"measurement": "solubility at 24 h", "setting": "[1]", "value": 27, "unit": "µg/mL"},
      {"measurement": "solubility in water", "setting": "[2]", "value": "< 100", "unit": "µg/mL"}
    ]},
    {"compound": "C[C@@H]1C[C@H]2[C@@H]3CCC4=CC(=O)C=C[C@]4(C)[C@@]3(F)[C@@H](O)C[C@]2(C)[C@@]1(O)C(=O)CO", "note": "[Dexamethasone]", "values": [
      {"measurement": "concentrations with no effect on production of TNF-α", "setting": "[3]", "value": "lower than 10^−9 M"},
      {"measurement": "concentrations with no effect on production of IL-6", "setting": "[4]", "value": "lower than 10^−9 M"}
    ]},
    {"compound": "HA-adipic dihydrazide [HA-ADH]", "values": [
      {"measurement": "effect of polymers on mesothelial cell viability (MTT)", "setting": "[5]", "value": "small reductions in cell viability"}
    ]},
    {"compound": "hyaluronic acid [HA, reference compound]", "values": [
      {"measurement": "effect of polymers on mesothelial cell viability (MTT)", "setting": "[5]", "value": "small reductions in cell viability"}
    ]},
    {"compound": "tPA: bolus of tPA solution (2.2 mg Activase) in the absence of HAX", "values": [
      {"measurement": "Qualitative (score) % frequency, score 0", "setting": "peritoneal adhesions; 10 ml applied on injured sites", "value": 25, "unit": "%"},
      {"measurement": "Qualitative (score) % frequency, score 1", "setting": "peritoneal adhesions; 10 ml applied on injured sites", "value": 0, "unit": "%"},
      {"measurement": "Qualitative (score) % frequency, score 2", "setting": "peritoneal adhesions; 10 ml applied on injured sites", "value": 0, "unit": "%"},
      {"measurement": "Qualitative (score) % frequency, score 3", "setting": "peritoneal adhesions; 10 ml applied on injured sites", "value": 75, "unit": "%"},
      {"measurement": "Quantitative (adhesion area), median", "setting": "peritoneal adhesions; area of score 2 or 3 adhesions", "value": 2.4, "unit": "cm^2"}
    ]}
  ]
}
